Test results from PMC11413853, “Discovery of VU6007496: Challenges in the Development of an M1 Positive Allosteric Modulator Backup Candidate” (ACS Chemical Neuroscience, 2024).
pEC50, pIC50: −log10 of the molar value. Like-named read-outs stand apart in the source and are kept apart here.

Legend:
[1] = Plasma protein binding, rat; assay type: in vitro ADME; conditions: pH 7.4, read-out: fu,plasma rat
Protocol: Plasma protein binding and Brain homogenate binding: Determination of fraction unbound (f u) in plasma was conducted in vitro via equilibrium dialysis using HTDialysis (HTD) membrane plates. The top half of the plate was filled with 100 uL of Dubelco’s Phosphate Buffered Saline, pH 7.4 (DPBS). Compounds were diluted into plasma from each species (5 µM final concentration), which was aliquoted in triplicate to the ‘bottom half’ of the prepared HTD plate wells. The HTD plate was sealed and incubated for 6 hours at 37 °C. Following incubation, each well (both top and bottom halves) were transferred (20 µL) to the corresponding wells of a 96-shallow-well (V-bottom) plate. The daughter plates were then matrix-matched (DPBS side wells received equal volume of plasma, and plasma side wells received equal volume of DPBS), and extraction solution (120 µL; acetonitrile containing 50 nM carbamazepine as IS) was added to all wells of both daughter plates to precipitate protein and extract test article. The plates were then sealed and centrifuged (3500 rcf) for 10 minutes at ambient temperature. Supernatant (60 µL) from each well of the daughter plates was then transferred to the corresponding wells of new daughter plates (96-shallow-well, V bottom) containing water (Milli-Q, 60 µL/well), and the plates were sealed in preparation for LC-MS/MS analysis (see LC-MS/MS analysis method below).
The unbound fraction (f u) was calculated following the equation below, and mean values for each species were calculated from 3 replicates. […]
Fraction unbound for both plasma and brain samples was determined using Equation 4.
Equation 4 Determination of fraction unbound in plasma.

P-gp = system: T1, P-gp; experiment: MDCK-MDR1 P-gp efflux and permeability; assay type: in vitro ADME; parameters: efflux ratio at 2 h / Papp at 2 h: dose or concentration left out as unconfirmed; conditions: for P-gp ER / efflux ratio at 2 h: MDCK-MDR1 efflux ratio; for Papp at 2 h / efflux ratio at 2 h: dog; for Papp at 2 h: MDCK-MDR1; for efflux ratio at 2 h: read-out: P-gp ER
T1 construct: host or cells: MDR1-MDCK cell monolayers
Protocol: In-vitro determination of blood-brain barrier penetration potential
Blood-brain barrier penetration was determined using MDR1-MDCK cell monolayers by Absorption Systems, following their protocol. In short, compounds were incubated […] final […]
concentration on one side of the cell monolayer for 2 hours. Compounds concentration on either side of the monolayer was determined by LC-MS/MS and apparent permeability and efflux ratio

CYP2D6 = CYP2D6 (Homo sapiens, UniProt P10635); experiment: CYP inhibition, 2D6; assay type: in vitro ADME
rM2-5 = experiment: Muscarinic selectivity, rat M2-5; assay type: cell-based
CYP3A4 = CYP3A4 (Homo sapiens, UniProt P08684); experiment: CYP inhibition, 3A4; assay type: in vitro ADME
rat M1 = target: T2, rat M1 (Rattus norvegicus, UniProt P08482); experiment: Calcium mobilization assay, rat M1 (agonist and PAM modes); assay type: cell-based; conditions: for rM1 PAM AChmax (%) / rM1 Agonist AChmax (%): % ACh max
T2 construct: expressed in transfected cells; host or cells: CHO (stated in general for all functional cell-based assays)
T2 sequence (P08482 1-460): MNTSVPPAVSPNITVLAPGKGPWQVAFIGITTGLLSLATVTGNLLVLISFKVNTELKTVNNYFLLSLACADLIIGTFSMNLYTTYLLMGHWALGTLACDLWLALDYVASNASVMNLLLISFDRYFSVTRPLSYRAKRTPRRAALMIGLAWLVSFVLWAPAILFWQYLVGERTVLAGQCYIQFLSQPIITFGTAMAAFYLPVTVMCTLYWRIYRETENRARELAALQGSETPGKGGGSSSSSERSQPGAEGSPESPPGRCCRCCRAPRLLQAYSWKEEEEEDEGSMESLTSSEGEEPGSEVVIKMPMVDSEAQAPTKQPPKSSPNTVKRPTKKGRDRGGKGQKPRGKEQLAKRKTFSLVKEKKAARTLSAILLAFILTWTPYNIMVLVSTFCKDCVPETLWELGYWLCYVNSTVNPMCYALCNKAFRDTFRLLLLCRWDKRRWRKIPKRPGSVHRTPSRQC

CYP1A2 = target: T3, CYP1A2 (Homo sapiens, UniProt P05177); experiment: CYP inhibition, 1A2; assay type: in vitro ADME
T3 sequence (P05177 1-516): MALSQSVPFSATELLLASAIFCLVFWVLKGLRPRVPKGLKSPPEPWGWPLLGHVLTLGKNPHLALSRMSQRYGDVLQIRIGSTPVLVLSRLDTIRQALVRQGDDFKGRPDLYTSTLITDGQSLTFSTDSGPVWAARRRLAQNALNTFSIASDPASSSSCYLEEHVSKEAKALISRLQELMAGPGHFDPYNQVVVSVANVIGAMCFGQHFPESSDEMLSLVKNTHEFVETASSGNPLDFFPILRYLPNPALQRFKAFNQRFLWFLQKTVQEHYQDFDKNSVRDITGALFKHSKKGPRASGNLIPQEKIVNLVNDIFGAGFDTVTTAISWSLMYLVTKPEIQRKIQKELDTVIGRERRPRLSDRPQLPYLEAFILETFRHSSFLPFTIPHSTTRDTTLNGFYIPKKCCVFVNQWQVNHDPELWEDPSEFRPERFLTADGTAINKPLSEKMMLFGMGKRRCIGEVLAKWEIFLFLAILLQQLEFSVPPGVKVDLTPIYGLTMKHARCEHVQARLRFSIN

[2] = PAM mode, read-out: rM1 PAM EC50
[3] = agonist mode, read-out: rM1 Agonist EC50

CYP2D6, sequence (P10635 whole entry): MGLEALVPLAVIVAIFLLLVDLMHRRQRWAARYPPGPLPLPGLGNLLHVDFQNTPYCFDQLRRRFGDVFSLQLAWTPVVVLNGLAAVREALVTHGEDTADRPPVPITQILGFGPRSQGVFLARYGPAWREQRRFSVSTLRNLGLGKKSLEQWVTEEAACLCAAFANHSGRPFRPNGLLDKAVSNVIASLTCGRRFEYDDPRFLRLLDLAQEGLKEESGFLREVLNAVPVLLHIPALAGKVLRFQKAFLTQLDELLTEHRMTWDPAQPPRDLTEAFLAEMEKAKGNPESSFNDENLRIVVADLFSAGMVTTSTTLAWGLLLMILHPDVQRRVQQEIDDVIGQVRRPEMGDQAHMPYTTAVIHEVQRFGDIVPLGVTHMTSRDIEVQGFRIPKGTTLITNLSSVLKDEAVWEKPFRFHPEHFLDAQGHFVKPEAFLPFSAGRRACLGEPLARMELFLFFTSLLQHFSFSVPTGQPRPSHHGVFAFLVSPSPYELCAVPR
CYP3A4, sequence (P08684 whole entry): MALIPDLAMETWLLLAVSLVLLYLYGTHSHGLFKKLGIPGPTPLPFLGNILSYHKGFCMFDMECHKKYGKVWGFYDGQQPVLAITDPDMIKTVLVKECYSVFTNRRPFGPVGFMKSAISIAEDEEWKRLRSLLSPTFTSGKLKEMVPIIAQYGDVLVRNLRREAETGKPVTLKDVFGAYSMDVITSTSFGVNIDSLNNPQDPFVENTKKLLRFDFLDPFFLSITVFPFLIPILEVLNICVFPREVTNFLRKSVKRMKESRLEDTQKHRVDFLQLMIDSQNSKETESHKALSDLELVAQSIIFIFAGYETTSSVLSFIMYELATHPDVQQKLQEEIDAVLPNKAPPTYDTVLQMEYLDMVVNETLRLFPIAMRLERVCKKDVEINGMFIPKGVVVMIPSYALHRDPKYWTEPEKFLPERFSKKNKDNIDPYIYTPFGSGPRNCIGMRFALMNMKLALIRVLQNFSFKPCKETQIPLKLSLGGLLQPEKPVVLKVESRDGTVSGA

Row | SMILES | fraction unbound at 6 h, 5 µM [1] | P-gp ER (P-gp) | Papp at 2 h (P-gp) | efflux ratio at 2 h (P-gp) | pIC50 (CYP2D6) | pEC50 (rM2-5) | pIC50 (CYP3A4) | rM1 PAM AChmax (%) (rat M1; PAM mode) | pEC50 (rat M1; [2]) | rM1 Agonist AChmax (%) (rat M1; agonist mode) | pEC50 (rat M1; [3]) | pIC50 (CYP1A2) | activity on rat M2–5 (rM2-5) | pEC50 (rat M1; agonist mode, read-out: rat M1 agonism EC50)
1 | Cn1ccc(-c2ccc(Cc3cc(C(=O)NC4CCOCC4)nc4ccn(C)c34)cc2)n1 [compound 11] | 0.04 | 3.5 | 12.8 ×10⁻⁶ cm/s | 3.5 | < 4.52 | < 4.52 | < 4.52 | 91% | 7.03 | 36% | 5.13 | < 4.52 | – | –
2 | Cn1ccc(-c2ccc(Cc3cc(C(=O)NC4CCOCC4)nc4ccsc34)cc2)n1 [compound 12] | 0.015 | 0.8 | 26.8 ×10⁻⁶ cm/s | 0.8 | < 4.52 | < 4.52 | < 4.52 | 90% | 7.20 | 32% | 5.36 | < 4.52 | – | –
3 | Cn1ccc2nc(C(=O)NC3CCOCC3)cc(Cc3ccc(-c4cc[nH]n4)cc3)c21 [compound 24] | 0.134 | – | 2 ×10⁻⁶ cm/s | 31.9 | < 4.52 | – | 5.24 | 89% | 7.25 | 48% | – | < 4.52 | inactive | 5.51
